Data published in PubChem BioAssay (NCI).
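These data come from cells grown in 96-well plates and exposed to compound for 48 hours at five concentrations. TGI denotes the concentration required for complete inhibition of growth.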

Key:
Experiment in all cases: NCI tumour cell line growth inhibition, 48 h
[1] = system: ACHN renal
[2] = system: U251 CNS
[3] = system: A498 renal
[4] = system: SF-539 CNS
[5] = system: NCI-H23 lung
[6] = system: UACC-257 melanoma
[7] = system: T-47D breast
[8] = system: PC-3 prostate
[9] = system: SK-OV-3 ovarian
[10] = system: HCC-2998 colon
[11] = system: MDA-MB-231 breast
[12] = system: NCI/ADR-RES ovarian
[13] = system: IGROV1 ovarian
[14] = system: EKVX NSCLC
[15] = system: SN12C renal
[16] = system: HCT-116 colon
[17] = system: SK-MEL-5 melanoma
[18] = system: 786-0 renal
[19] = system: RPMI-8226 leukemia
[20] = system: SW-620 colon
[21] = system: NCI-H522 lung
[22] = system: HOP-62 NSCLC
[23] = system: MOLT-4 leukemia
[24] = system: CAKI-1 renal
[25] = system: BT-549 breast
[26] = system: MALME-3M melanoma
[27] = system: KM12 colon
[28] = system: OVCAR-4 ovarian
[29] = system: TK-10 renal
[30] = system: SF-268 CNS
[31] = system: SK-MEL-28 melanoma
[32] = system: NCI-H460 lung
[33] = system: SNB-75 CNS
[34] = system: COLO 205 colon
[35] = system: MCF7 breast
[36] = system: RXF 393 renal
[37] = system: UO-31 renal
[38] = system: A549 NSCLC
[39] = system: SK-MEL-2 melanoma
[40] = system: OVCAR-8 ovarian
[41] = system: OVCAR-5 ovarian
[42] = system: M14 melanoma
[43] = system: NCI-H226 lung
[44] = system: HCT-15 colon
[45] = system: SNB-19 CNS
[46] = system: LOX IMVI melanoma
[47] = system: MDA-MB-435
[48] = system: MDA-N
[49] = system: HOP-92 NSCLC
[50] = system: OVCAR-3 ovarian
[51] = system: SF-295 CNS
[52] = system: K-562 leukemia
[53] = system: HL-60(TB) leukemia
[54] = system: HT29 colon
[55] = system: DU-145 prostate
[56] = system: CCRF-CEM leukemia
[57] = system: HS 578T breast
[58] = system: SR leukemia
[59] = system: UACC-62 melanoma

SMILES: CC(=O)Nc1ccc2cc(C#N)c(=O)[nH]c2n1
- TGI [1]: > 100 µM
- TGI [2]: > 100 µM
- TGI [3]: > 100 µM
- TGI [4]: > 100 µM
- TGI [5]: > 100 µM
- TGI [6]: > 100 µM
- TGI [7]: > 100 µM
- TGI [8]: > 100 µM
- TGI [9]: > 100 µM
- TGI [10]: > 100 µM
- TGI [11]: > 100 µM
- TGI [12]: > 100 µM
- TGI [13]: > 100 µM
- TGI [14]: > 100 µM
- TGI [15]: > 100 µM
- TGI [16]: > 100 µM
- TGI [17]: > 100 µM
- TGI [18]: > 100 µM
- TGI [19]: > 100 µM
- TGI [20]: > 100 µM
- TGI [21]: > 100 µM
- TGI [22]: > 100 µM
- TGI [23]: > 100 µM
- TGI [24]: > 100 µM
- TGI [25]: > 100 µM
- TGI [26]: > 100 µM
- TGI [27]: > 100 µM
- TGI [28]: > 100 µM
- TGI [29]: > 100 µM
- TGI [30]: > 100 µM
- TGI [31]: > 100 µM
- TGI [32]: > 100 µM
- TGI [33]: > 100 µM
- TGI [34]: > 100 µM
- TGI [35]: > 100 µM
- TGI [36]: > 100 µM
- TGI [37]: > 100 µM
- TGI [38]: > 100 µM
- TGI [39]: > 100 µM
- TGI [40]: > 100 µM
- TGI [41]: > 100 µM
- TGI [42]: > 100 µM
- TGI [43]: > 100 µM
- TGI [44]: > 100 µM
- TGI [45]: > 100 µM
- TGI [46]: > 100 µM
- TGI [47]: > 100 µM
- TGI [48]: > 100 µM
- TGI [49]: > 100 µM
- TGI [50]: > 100 µM
- TGI [51]: > 100 µM
- TGI [52]: > 100 µM

SMILES: CC(=O)OC/C=C\Cn1ncc(=O)[nH]c1=O
- TGI [1]: 43.8 µM
- TGI [2]: 28.2 µM
- TGI [3]: 31.9 µM
- TGI [53]: 30.1 µM
- TGI [4]: 35.7 µM
- TGI [5]: 28.9 µM
- TGI [7]: 69.9 µM
- TGI [8]: 36 µM
- TGI [10]: 35 µM
- TGI [11]: 68 µM
- TGI [12]: 50.6 µM
- TGI [13]: 42.5 µM
- TGI [14]: 38.8 µM
- TGI [15]: 42 µM
- TGI [54]: 29.9 µM
- TGI [55]: 42.8 µM
- TGI [17]: 26.7 µM
- TGI [19]: 31.4 µM
- TGI [20]: 40.5 µM
- TGI [21]: 32.4 µM
- TGI [22]: 43.9 µM
- TGI [23]: 44 µM
- TGI [26]: 31.5 µM
- TGI [27]: 31.3 µM
- TGI [30]: 36.7 µM
- TGI [31]: 50.2 µM
- TGI [32]: 48.7 µM
- TGI [33]: 33.9 µM
- TGI [34]: 37.9 µM
- TGI [35]: 45.1 µM
- TGI [36]: 37.1 µM
- TGI [37]: 37.5 µM
- TGI [38]: 58.9 µM
- TGI [39]: 40.2 µM
- TGI [40]: 66.1 µM
- TGI [41]: 32.3 µM
- TGI [56]: 50.4 µM
- TGI [42]: 46.8 µM
- TGI [43]: 36 µM
- TGI [44]: 37.5 µM
- TGI [45]: > 100 µM
- TGI [46]: 13.3 µM
- TGI [47]: 39.3 µM
- TGI [48]: 31.8 µM
- TGI [57]: > 100 µM
- TGI [49]: 30.6 µM
- TGI [50]: 69.3 µM
- TGI [52]: 54.9 µM

SMILES: O=C(Oc1ccc(C(c2c(O)c3ccccc3oc2=O)c2c(O)c3ccccc3oc2=O)cc1)c1ccc(C(=O)c2ccccc2)cc1
- TGI [1]: 40.3 µM
- TGI [2]: 54.7 µM
- TGI [4]: 36.5 µM
- TGI [5]: 35.3 µM
- TGI [6]: 33.9 µM
- TGI [7]: > 100 µM
- TGI [8]: 35.8 µM
- TGI [9]: 33.4 µM
- TGI [10]: 36 µM
- TGI [11]: > 100 µM
- TGI [12]: 34.8 µM
- TGI [13]: 36.6 µM
- TGI [14]: 34.6 µM
- TGI [58]: 55.7 µM
- TGI [15]: > 100 µM
- TGI [54]: 31.8 µM
- TGI [59]: 41 µM
- TGI [55]: > 100 µM
- TGI [16]: > 100 µM
- TGI [17]: 75 µM
- TGI [18]: > 100 µM
- TGI [19]: 56.5 µM
- TGI [20]: > 100 µM
- TGI [21]: 30.6 µM
- TGI [22]: 69.9 µM
- TGI [23]: 41.3 µM
- TGI [24]: 57.4 µM
- TGI [27]: 30.8 µM
- TGI [28]: 92.1 µM
- TGI [29]: 37.8 µM
- TGI [30]: 66.5 µM
- TGI [31]: 36.5 µM
- TGI [32]: 45.6 µM
- TGI [33]: 32.4 µM
- TGI [34]: > 100 µM
- TGI [35]: > 100 µM
- TGI [36]: 83.6 µM
- TGI [37]: 31.6 µM
- TGI [38]: 55.8 µM
- TGI [39]: 35.2 µM
- TGI [40]: 33.8 µM
- TGI [41]: 38.3 µM
- TGI [56]: 42.8 µM
- TGI [43]: 25.9 µM
- TGI [44]: 89.4 µM
- TGI [45]: 37.2 µM
- TGI [46]: 52.1 µM
- TGI [47]: 42.3 µM
- TGI [48]: > 100 µM
- TGI [57]: > 100 µM
- TGI [50]: 36.5 µM
- TGI [51]: 51.3 µM
- TGI [52]: 47.9 µM

SMILES: O=C(CCl)N1CCN(c2ccccc2)CC1
- TGI [1]: 41.1 µM
- TGI [2]: 34.4 µM
- TGI [3]: 47.2 µM
- TGI [53]: 41.2 µM
- TGI [5]: 35.6 µM
- TGI [6]: 43.6 µM
- TGI [7]: 45.8 µM
- TGI [8]: 59.4 µM
- TGI [9]: > 100 µM
- TGI [10]: 32.2 µM
- TGI [12]: > 100 µM
- TGI [13]: 51.7 µM
- TGI [14]: 44.2 µM
- TGI [58]: > 100 µM
- TGI [54]: 41.4 µM
- TGI [55]: > 100 µM
- TGI [16]: 35.5 µM
- TGI [17]: 31.1 µM
- TGI [18]: 29.3 µM
- TGI [19]: 85.5 µM
- TGI [20]: 54.3 µM
- TGI [22]: 36.3 µM
- TGI [23]: > 100 µM
- TGI [24]: 29.9 µM
- TGI [26]: 42.8 µM
- TGI [27]: 37.2 µM
- TGI [28]: 32.9 µM
- TGI [29]: 34.8 µM
- TGI [30]: 33 µM
- TGI [31]: 35.7 µM
- TGI [32]: 34.9 µM
- TGI [33]: 32.5 µM
- TGI [34]: 40 µM
- TGI [35]: 42.4 µM
- TGI [36]: 35.2 µM
- TGI [37]: 32 µM
- TGI [38]: 43.3 µM
- TGI [40]: 97.2 µM
- TGI [41]: 34.9 µM
- TGI [56]: > 100 µM
- TGI [42]: 35.2 µM
- TGI [44]: 39.2 µM
- TGI [45]: > 100 µM
- TGI [48]: 39.9 µM
- TGI [57]: 76.7 µM
- TGI [49]: 36.2 µM
- TGI [51]: 36.2 µM
- TGI [52]: > 100 µM
